Data: patent US11919893B1, “7-(4-((5-(2-bromobenzylideneamino)-2-thioxo-1,3,4-thiadiazol-3(2H)-yl)methyl) piperazin-1-yl)-1-cyclopropyl-6-fluoro-4-oxo-1,4-dihydroquinoline-3-carboxylic acid as an anti-inflammatory compound” (KING FAISAL UNIVERSITY, priority 2023, dated 2024)

Target: Bovine serum albumin (Bos taurus, UniProt P02769)
Assay: Bovine serum albumin (BSA) protein denaturation assay, in vitro anti-inflammatory activity
Type: biochemical
Description: Bovine Serum Albumin Assay (BSA) In vitro-inflammatory activities of the tested samples were determined using a modified method of the BSA assay reported by Williams et al. BSA solution (0.4%, w/v) was prepared in Tris Buffered Saline. The pH was adjusted to 6.4 with glacial acetic acid. Different dilutions of 20, 40, 60, 80, and 100 μg/mL of 7-(4-((5-(2-bromobenzylideneamino)-2-thioxo-1,3,4-thiadiazol-3(2H)-yl)methyl)piperazin-1-yl)-1-cyclopropyl-6-fluoro-4-oxo-1,4-dihydroquinoline-3-carboxylic acid (IV) the stock solutions were added to test tubes containing 1 mL of 0.4%, w/v BSA buffer solution. Both negative (solvent) and positive (aspirin) controls were assayed in a similar manner. The solutions were then heated in a water bath at 72° C. for 10 minutes and cooled for 20 minutes under laboratory conditions. The turbidity of the solutions (level of protein precipitation) was measured at 660 nm in Spectrophotometer (V-770 UV-Visible/NIR Spectrophotometer). The percentage inhibition of precipitation (protein denaturation) was determined relative to the negative control using the following equation: [formula] % Anti-Denaturation Activity=% Inhibition of Protein Denaturation=% Anti-inflammatory Activity

[1] = read-out: % Inhibition of protein denaturation (Bovine serum albumin)

Chain of Bovine serum albumin (P02769 25-607): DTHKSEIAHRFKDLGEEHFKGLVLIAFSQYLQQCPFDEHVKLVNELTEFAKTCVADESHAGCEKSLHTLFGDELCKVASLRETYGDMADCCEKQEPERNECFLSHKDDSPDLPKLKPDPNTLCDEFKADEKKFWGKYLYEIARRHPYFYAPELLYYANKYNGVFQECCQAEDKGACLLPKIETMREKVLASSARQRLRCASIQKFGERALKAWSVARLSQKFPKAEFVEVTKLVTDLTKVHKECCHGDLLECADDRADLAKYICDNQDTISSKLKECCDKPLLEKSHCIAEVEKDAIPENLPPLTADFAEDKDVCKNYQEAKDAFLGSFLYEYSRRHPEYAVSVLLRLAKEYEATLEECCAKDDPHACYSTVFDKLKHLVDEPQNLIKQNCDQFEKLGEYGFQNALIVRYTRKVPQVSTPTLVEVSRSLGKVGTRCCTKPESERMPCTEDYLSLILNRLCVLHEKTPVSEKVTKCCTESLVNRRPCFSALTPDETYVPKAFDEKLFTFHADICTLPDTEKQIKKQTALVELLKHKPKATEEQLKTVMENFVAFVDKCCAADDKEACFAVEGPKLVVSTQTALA

O=C(O)c1cn(C2CC2)c2cc(N3CCN(Cn4nc(N=Cc5ccccc5Br)sc4=S)CC3)c(F)cc2c1=O [IV, 7-(4-((5-(2-bromobenzylideneamino)-2-thioxo-1,3,4-thiadiazol-3(2H)-yl)methyl)piperazin-1-yl)-1-cyclopropyl-6-fluoro-4-oxo-1,4-dihydroquinoline-3-carboxylic acid]
in vitro anti-inflammatory activity (in words) (BSA denaturation assay): considerable anti-inflammatory effect
inhibition at 20 µg/mL [1]: 62.6%
inhibition at 40 µg/mL [1]: 73.1%
inhibition at 60 µg/mL [1]: 75.2%
inhibition at 80 µg/mL [1]: 82%
inhibition at 100 µg/mL [1]: 84.8%
